Experiments:
[1] = target: [35S]-TBPS binding, rat brain cortical membranes (GABA receptor complex); test: Steroid inhibition of [35S]-TBPS binding; settings: 3 nM [35S]-TBPS, 5 μM GABA
Experimental: Steroid Inhibition of TBPS Binding
[35S]-t-Butylbicyclophosphorothionate (TBPS) binding assays using rat brain cortical membranes in the presence of 5 μM GABA has been described (Gee et al, J. Pharmacol. Exp. Ther. 1987, 241, 346-353; Hawkinson et al, Mol. Pharmacol. 1994, 46, 977-985; Lewin, A. H et al., Mol. Pharmacol. 1989, 35, 189-194).
Briefly, cortices are rapidly removed following decapitation of carbon dioxide-anesthetized Sprague-Dawley rats (200-250 g). The cortices are homogenized in 10 volumes of ice-cold 0.32 M sucrose using a glass/teflon homogenizer and centrifuged at 1500×g for 10 min at 4° C. The resultant supernatants are centrifuged at 10,000×g for 20 min at 4° C. to obtain the P2 pellets. The P2 pellets are resuspended in 200 mM NaCl/50 mM Na-K phosphate pH 7.4 buffer and centrifuged at 10,000×g for 10 min at 4° C. This washing procedure is repeated twice and the pellets are resuspended in 10 volumes of buffer. Aliquots (100 μL) of the membrane suspensions are incubated with 3 nM [^35S]-TBPS and 5 μL aliquots of test drug dissolved in dimethyl sulfoxide (DMSO) (final 0.5%) in the presence of 5 μM GABA. The incubation is brought to a final volume of 1.0 mL with buffer. Nonspecific binding is determined in the presence of 2 μM unlabeled TBPS and ranged from 15 to 25%. Following a 90 min incubation at room temp, the assays are terminated by filtration through glass fiber filters (Schleicher and Schuell No. 32) using a cell harvester (Brandel) and rinsed three times with ice-cold buffer. Filter bound radioactivity is measured by liquid scintillation spectrometry. Non-linear curve fitting of the overall data for each drug averaged for each concentration is done using Prism (GraphPad). […] The concentration of test compound producing 50% inhibition (IC50) of specific binding and the maximal extent of inhibition (Imax) are determined for the individual experiments with the same model used for the overall data and then the means±SEM.s of the individual experiments are calculated.
Various compounds are or can be screened to determine their potential as modulators of [^35S]-TBPS binding in vitro. These assays are or can be performed in accordance with the above discussed procedures.

GABAA receptor α1β2γ2 = target: T1, GABAA receptor α1β2γ2 (Homo sapiens, UniProt P14867+P47870); test: Patch clamp electrophysiology, Qpatch in Ltk cells; assay type: cell-based; settings: 10 μM test article, GABA EC20 2 μM, read-out: GABA (α1β2γ2) Qpatch in Ltk, % efficacy at 10 μM
T1 construct: expressed in transfected cells
T1 sequence (P14867 28-456): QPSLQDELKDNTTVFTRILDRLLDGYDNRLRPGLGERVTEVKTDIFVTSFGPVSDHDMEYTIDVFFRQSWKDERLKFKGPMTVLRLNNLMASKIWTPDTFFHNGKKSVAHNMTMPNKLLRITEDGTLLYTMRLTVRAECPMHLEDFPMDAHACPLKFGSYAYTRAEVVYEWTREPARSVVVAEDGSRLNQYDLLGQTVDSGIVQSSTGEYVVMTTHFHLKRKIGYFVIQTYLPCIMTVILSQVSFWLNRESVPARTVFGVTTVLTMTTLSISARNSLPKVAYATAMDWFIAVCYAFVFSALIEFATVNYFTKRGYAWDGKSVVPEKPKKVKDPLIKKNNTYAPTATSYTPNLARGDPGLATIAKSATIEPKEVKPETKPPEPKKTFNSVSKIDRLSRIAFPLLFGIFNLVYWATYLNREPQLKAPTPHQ
T1 sequence (P47870 25-512 limits assumed): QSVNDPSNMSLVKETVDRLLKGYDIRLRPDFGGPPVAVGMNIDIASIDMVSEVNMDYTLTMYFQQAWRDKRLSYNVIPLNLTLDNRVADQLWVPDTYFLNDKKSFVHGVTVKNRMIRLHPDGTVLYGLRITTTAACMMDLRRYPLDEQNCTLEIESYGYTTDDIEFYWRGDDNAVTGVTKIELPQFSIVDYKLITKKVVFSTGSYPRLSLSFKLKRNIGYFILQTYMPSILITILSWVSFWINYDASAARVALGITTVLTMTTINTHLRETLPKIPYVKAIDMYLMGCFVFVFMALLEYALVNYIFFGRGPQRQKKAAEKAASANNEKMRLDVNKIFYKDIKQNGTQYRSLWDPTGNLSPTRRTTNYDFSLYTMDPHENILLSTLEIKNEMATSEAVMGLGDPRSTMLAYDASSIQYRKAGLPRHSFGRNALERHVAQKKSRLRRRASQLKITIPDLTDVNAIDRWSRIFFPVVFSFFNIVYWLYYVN
T1 sequence (P18507 40-475 partner): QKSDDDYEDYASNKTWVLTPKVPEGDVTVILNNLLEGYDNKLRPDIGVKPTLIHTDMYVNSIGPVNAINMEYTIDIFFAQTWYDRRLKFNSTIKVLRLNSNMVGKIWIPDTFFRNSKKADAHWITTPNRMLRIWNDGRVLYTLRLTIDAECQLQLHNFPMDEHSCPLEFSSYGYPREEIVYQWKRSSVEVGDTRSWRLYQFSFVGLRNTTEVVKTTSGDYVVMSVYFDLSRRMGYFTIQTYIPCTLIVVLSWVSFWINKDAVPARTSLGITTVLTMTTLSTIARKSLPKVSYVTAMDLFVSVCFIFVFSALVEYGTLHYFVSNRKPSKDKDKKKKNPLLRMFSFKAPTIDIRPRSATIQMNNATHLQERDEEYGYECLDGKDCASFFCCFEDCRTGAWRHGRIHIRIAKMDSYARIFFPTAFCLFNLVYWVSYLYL
Method in brief: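 Whole-cell voltage clamp at −80 mV, room temperature: α1β2γ2 stably expressed in Ltk cells (QPatch), α4β3δ transiently in CHO cells (manual patch). Compound at 0.01–10 μM pre-applied 30 s, then 2 μM GABA (EC20) for 2 s. Potentiation = peak current with compound / GABA alone × 100.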

GABAA receptor α4β3δ = target: T2, GABAA receptor α4β3δ (Homo sapiens, UniProt P28472+P48169); test: Patch clamp electrophysiology, manual patch in CHO cells; assay type: cell-based; settings: 10 μM test article, GABA EC20 2 μM, read-out: GABA (α4β3δ) Manual patch in CHO, % efficacy at 10 μM
T2 construct: expressed in transfected cells; host or cells: CHO cells (transient, lipofection)
T2 sequence (P48169 36-554): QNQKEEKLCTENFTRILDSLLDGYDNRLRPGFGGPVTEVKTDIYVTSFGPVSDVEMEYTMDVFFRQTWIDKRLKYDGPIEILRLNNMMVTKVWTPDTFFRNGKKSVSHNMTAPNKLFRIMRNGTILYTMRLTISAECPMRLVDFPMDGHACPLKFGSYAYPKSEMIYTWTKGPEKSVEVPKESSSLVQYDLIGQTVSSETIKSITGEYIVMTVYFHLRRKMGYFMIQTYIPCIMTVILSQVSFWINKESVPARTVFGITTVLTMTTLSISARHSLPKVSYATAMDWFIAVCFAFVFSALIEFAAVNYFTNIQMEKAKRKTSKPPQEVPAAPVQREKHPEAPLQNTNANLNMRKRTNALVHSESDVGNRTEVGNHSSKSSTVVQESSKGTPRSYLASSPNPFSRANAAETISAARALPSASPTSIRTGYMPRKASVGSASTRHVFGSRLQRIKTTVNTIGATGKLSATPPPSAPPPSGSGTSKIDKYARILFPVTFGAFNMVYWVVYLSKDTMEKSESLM
T2 sequence (P28472 26-473): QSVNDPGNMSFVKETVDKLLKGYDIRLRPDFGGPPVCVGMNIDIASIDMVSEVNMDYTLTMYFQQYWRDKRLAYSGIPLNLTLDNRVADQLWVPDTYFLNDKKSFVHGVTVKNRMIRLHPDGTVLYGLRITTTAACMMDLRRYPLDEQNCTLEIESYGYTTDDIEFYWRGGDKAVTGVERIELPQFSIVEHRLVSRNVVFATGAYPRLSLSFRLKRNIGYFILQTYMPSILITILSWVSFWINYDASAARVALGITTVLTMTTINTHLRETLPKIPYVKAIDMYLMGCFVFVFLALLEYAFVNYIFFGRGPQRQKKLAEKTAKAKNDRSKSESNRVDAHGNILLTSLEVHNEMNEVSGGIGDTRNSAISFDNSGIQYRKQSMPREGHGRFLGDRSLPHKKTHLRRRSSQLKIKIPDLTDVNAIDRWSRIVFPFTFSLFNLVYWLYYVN
T2 sequence (O14764 25-452 partner): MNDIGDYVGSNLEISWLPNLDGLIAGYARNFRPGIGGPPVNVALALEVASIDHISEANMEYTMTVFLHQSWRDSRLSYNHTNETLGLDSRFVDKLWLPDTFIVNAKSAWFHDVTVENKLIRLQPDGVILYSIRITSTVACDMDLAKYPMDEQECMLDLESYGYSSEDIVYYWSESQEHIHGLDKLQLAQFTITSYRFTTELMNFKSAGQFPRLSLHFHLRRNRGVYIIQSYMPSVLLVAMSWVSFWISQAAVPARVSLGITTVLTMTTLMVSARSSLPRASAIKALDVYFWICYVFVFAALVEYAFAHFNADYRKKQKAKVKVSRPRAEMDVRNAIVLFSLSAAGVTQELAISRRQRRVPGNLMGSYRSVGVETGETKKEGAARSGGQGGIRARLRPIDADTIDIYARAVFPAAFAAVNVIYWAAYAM
Experimental: Patch Clamp Electrophysiology of Recombinant α1β2γ2 and α4β3δ GABAA Receptors
Cellular electrophysiology is used to measure the pharmacological properties of our GABAA receptor modulators in heterologous cell systems. Each compound is tested for its ability to affect GABA mediated currents at a submaximal agonist dose (GABA EC20=2 μM). LTK cells are stably transfected with the α1β2γ2 subunits of the GABA receptor and CHO cells are transiently transfected with the α4β3δ subunits via the Lipofecatamine method. Cells were passaged at a confluence of about 50-80% and then seeded onto 35 mm sterile culture dishes containing 2 ml culture complete medium without antibiotics or antimycotics. Confluent clusters of cells are electrically coupled (Pritchett et al., Science, 1988, 242, 1306-1308.). Because responses in distant cells are not adequately voltage clamped and because of uncertainties about the extent of coupling (Verdoorn et al., Neuron 1990, 4, 919-928.), cells were cultivated at a density that enables the recording of single cells (without visible connections to other cells).
Whole cell currents were measured with HEKA EPC-10 amplifiers using PatchMaster software or by using the high throughput QPatch platform (Sophion). Bath solution for all experiments contained (in mM): NaCl 137 mM, KCl 4 mM, CaCl2 1.8 mM, MgCl2 1 mM, HEPES 10 mM, D-Glucose 10 mM, pH (NaOH) 7.4. In some cases 0.005% cremophor was also added. Intracellular (pipette) solution contained: KCl 130 mM, MgCl2 1 mM, Mg-ATP 5 mM, HEPES 10 mM, EGTA 5 mM, pH 7.2. During experiments, cells and solutions were maintained at room temperature (19° C.-30° C.). For manual patch clamp recordings, cell culture dishes were placed on the dish holder of the microscope and continuously perfused (1 ml/min) with bath solution. After formation of a Gigaohm seal between the patch electrodes and the cell (pipette resistance range: 2.5 MΩ-6.0 MΩ; seal resistance range: >1 GΩ) the cell membrane across the pipette tip was ruptured to assure electrical access to the cell interior (whole-cell patch-configuration). For experiments using the QPatch system, cells were transferred as suspension to the QPatch system in the bath solution and automated whole cell recordings were performed.
Cells were voltage clamped at a holding potential of −80 mV. For the analysis of test articles, GABA receptors were stimulated by 2 μM GABA after sequential pre-incubation of increasing concentrations of the test article. Pre-incubation duration was 30 s and the duration of the GABA stimulus was 2 s. Test articles were dissolved in DMSO to form stock solutions (10 mM). Test articles were diluted to 0.01, 0.1, 1, and 10 μM in bath solution. All concentrations of test articles were tested on each cell. The relative percentage potentiation was defined as the peak amplitude in response to GABA EC20 in the presence of the test article divided by the peak amplitude in response to GABA EC20 alone, multiplied by 100.

Compound | IC50 [1] | Emax at 10 µM (GABAA receptor α1β2γ2) | Emax at 10 µM (GABAA receptor α4β3δ)
C[C@@]1(O)CC[C@H]2[C@H](CC[C@@H]3[C@@H]2CC[C@]2(C)[C@@H](C(=O)Cn4cccn4)CC[C@@H]32)C1 [SA-13] | 10 to 50 nM | 100 to 500% | > 500%
Cc1cnn(CC(=O)[C@H]2CC[C@H]3[C@@H]4CC[C@@H]5C[C@](C)(O)CC[C@@H]5[C@H]4CC[C@]23C)c1 [SA-6] | 10 to 50 nM | 100 to 500% | > 500%
C[C@@]1(O)CC[C@H]2[C@H](CC[C@@H]3[C@@H]2CC[C@]2(C)[C@@H](C(=O)Cn4cc(C#N)cn4)CC[C@@H]32)C1 [SA-4] | < 10 nM | 100 to 500% | 100 to 500%
